In patent publication US20100035755A1, “METHOD OF CONTROLLING WEEDS IN A TURF GRASS BY USING SULFONYLUREA COMPOUNDS” (Moghu Research Center Ltd., priority 2008, published 2010):

Key:
Kentucky bluegrass = assay: Turf grass selectivity, greenhouse pot test; format: in vivo, Poa pratensis
Method in brief: (§1)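 Turf mats transplanted to pots of sandy loam/top soil (1:1), mown weekly to 0.5-1.0 cm and grown one month in greenhouse (25˜30° C. day, 15˜25° C. night). Test chemicals sprayed at 400, 200, 100, 50, 25, 12, 6, 3 g ai/ha in 2,000 L/ha tap-water dilution; three replicates, randomised, averaged.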

Perennial rye grass = assay: Turf grass selectivity, greenhouse pot test; format: in vivo
Method in brief: as §1

Kummerowia striata = assay: Weed spectrum, greenhouse pot test; format: in vivo; conditions: two weeks after application
Method in brief: (§2)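 Seeds of each species were sown into pots filled with sandy loam and top soil (1:1) and kept in a greenhouse. Test chemical was sprayed immediately after sowing (pre-emergence) or after two weeks' growth to about three-leaf stage (post-emergence). Efficacy was judged visually after two weeks, from 0 (none) to 100.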

Veronica officinalis = assay: Weed spectrum, greenhouse pot test; format: in vivo; conditions: two weeks after application
Method in brief: as §2

Cyperus amuricus = assay: Weed spectrum, greenhouse pot test; format: in vivo; conditions: two weeks after application
Method in brief: as §2

Portulaca oleracea = assay: Weed spectrum, greenhouse pot test; format: in vivo; conditions: two weeks after application
Method in brief: as §2

Digitaria sanguinalis = assay: Weed spectrum, greenhouse pot test; format: in vivo; conditions: two weeks after application
Method in brief: as §2

Trifolium repens = assay: Weed spectrum, greenhouse pot test; format: in vivo; conditions: two weeks after application
Method in brief: as §2

Poa annua = assay: Weed spectrum, greenhouse pot test; format: in vivo; conditions: two weeks after application
Method in brief: as §2

SMILES: CCOC(=O)c1cnn(C)c1S(=O)(=O)NC(=O)Nc1nc(OC)cc(OC)n1 [Control chemical No. 1, Pyrazosulfuron ethyl, reference compound]
- phytotoxicity (visual assessment 0-10) (Kentucky bluegrass; 3 g ai/ha, 2 weeks): 0
- phytotoxicity (visual assessment 0-10) (Kentucky bluegrass; 3 g ai/ha, 4 weeks): 0
- phytotoxicity (visual assessment 0-10) (Kentucky bluegrass; 6 g ai/ha, 2 weeks): 0
- phytotoxicity (visual assessment 0-10) (Kentucky bluegrass; 6 g ai/ha, 4 weeks): 0
- phytotoxicity (visual assessment 0-10) (Kentucky bluegrass; 12 g ai/ha, 2 weeks): 0
- phytotoxicity (visual assessment 0-10) (Kentucky bluegrass; 12 g ai/ha, 4 weeks): 0
- phytotoxicity (visual assessment 0-10) (Kentucky bluegrass; 25 g ai/ha, 2 weeks): 0
- phytotoxicity (visual assessment 0-10) (Kentucky bluegrass; 25 g ai/ha, 4 weeks): 0
- phytotoxicity (visual assessment 0-10) (Kentucky bluegrass; 50 g ai/ha, 2 weeks): 0
- phytotoxicity (visual assessment 0-10) (Kentucky bluegrass; 50 g ai/ha, 4 weeks): 0
- phytotoxicity (visual assessment 0-10) (Kentucky bluegrass; 100 g ai/ha, 2 weeks): 0
- phytotoxicity (visual assessment 0-10) (Kentucky bluegrass; 100 g ai/ha, 4 weeks): 0
- phytotoxicity (visual assessment 0-10) (Kentucky bluegrass; 200 g ai/ha, 2 weeks): 1
- phytotoxicity (visual assessment 0-10) (Kentucky bluegrass; 200 g ai/ha, 4 weeks): 0
- phytotoxicity (visual assessment 0-10) (Kentucky bluegrass; 400 g ai/ha, 2 weeks): 2
- phytotoxicity (visual assessment 0-10) (Kentucky bluegrass; 400 g ai/ha, 4 weeks): 1
- phytotoxicity (visual assessment 0-10) (Perennial rye grass; 3 g ai/ha, 2 weeks): 0
- phytotoxicity (visual assessment 0-10) (Perennial rye grass; 3 g ai/ha, 4 weeks): 0
- phytotoxicity (visual assessment 0-10) (Perennial rye grass; 6 g ai/ha, 2 weeks): 0
- phytotoxicity (visual assessment 0-10) (Perennial rye grass; 6 g ai/ha, 4 weeks): 0
- phytotoxicity (visual assessment 0-10) (Perennial rye grass; 12 g ai/ha, 2 weeks): 0
- phytotoxicity (visual assessment 0-10) (Perennial rye grass; 12 g ai/ha, 4 weeks): 0
- phytotoxicity (visual assessment 0-10) (Perennial rye grass; 25 g ai/ha, 2 weeks): 0
- phytotoxicity (visual assessment 0-10) (Perennial rye grass; 25 g ai/ha, 4 weeks): 0
- phytotoxicity (visual assessment 0-10) (Perennial rye grass; 50 g ai/ha, 2 weeks): 0
- phytotoxicity (visual assessment 0-10) (Perennial rye grass; 50 g ai/ha, 4 weeks): 0
- phytotoxicity (visual assessment 0-10) (Perennial rye grass; 100 g ai/ha, 2 weeks): 0
- phytotoxicity (visual assessment 0-10) (Perennial rye grass; 100 g ai/ha, 4 weeks): 0
- phytotoxicity (visual assessment 0-10) (Perennial rye grass; 200 g ai/ha, 2 weeks): 0
- phytotoxicity (visual assessment 0-10) (Perennial rye grass; 200 g ai/ha, 4 weeks): 0
- phytotoxicity (visual assessment 0-10) (Perennial rye grass; 400 g ai/ha, 2 weeks): 1
- phytotoxicity (visual assessment 0-10) (Perennial rye grass; 400 g ai/ha, 4 weeks): 0
- efficacy (0-100 scale) (Kummerowia striata; Post-emergence, 12 g ai/ha): 0
- efficacy (0-100 scale) (Kummerowia striata; Post-emergence, 25 g ai/ha): 30
- efficacy (0-100 scale) (Kummerowia striata; Post-emergence, 50 g ai/ha): 40
- efficacy (0-100 scale) (Kummerowia striata; Post-emergence, 100 g ai/ha): 50
- efficacy (0-100 scale) (Kummerowia striata; Pre-emergence, 12 g ai/ha): 30
- efficacy (0-100 scale) (Kummerowia striata; Pre-emergence, 25 g ai/ha): 50
- efficacy (0-100 scale) (Kummerowia striata; Pre-emergence, 50 g ai/ha): 50
- efficacy (0-100 scale) (Kummerowia striata; Pre-emergence, 100 g ai/ha): 70
- efficacy (0-100 scale) (Veronica officinalis; Post-emergence, 12 g ai/ha): 10
- efficacy (0-100 scale) (Veronica officinalis; Post-emergence, 25 g ai/ha): 20
- efficacy (0-100 scale) (Veronica officinalis; Post-emergence, 50 g ai/ha): 30
- efficacy (0-100 scale) (Veronica officinalis; Post-emergence, 100 g ai/ha): 30
- efficacy (0-100 scale) (Veronica officinalis; Pre-emergence, 12 g ai/ha): 0
- efficacy (0-100 scale) (Veronica officinalis; Pre-emergence, 25 g ai/ha): 20
- efficacy (0-100 scale) (Veronica officinalis; Pre-emergence, 50 g ai/ha): 30
- efficacy (0-100 scale) (Veronica officinalis; Pre-emergence, 100 g ai/ha): 40
- efficacy (0-100 scale) (Cyperus amuricus; Post-emergence, 12 g ai/ha): 50
- efficacy (0-100 scale) (Cyperus amuricus; Post-emergence, 25 g ai/ha): 70
- efficacy (0-100 scale) (Cyperus amuricus; Post-emergence, 50 g ai/ha): 80
- efficacy (0-100 scale) (Cyperus amuricus; Post-emergence, 100 g ai/ha): 100
- efficacy (0-100 scale) (Cyperus amuricus; Pre-emergence, 12 g ai/ha): 70
- efficacy (0-100 scale) (Cyperus amuricus; Pre-emergence, 25 g ai/ha): 80
- efficacy (0-100 scale) (Cyperus amuricus; Pre-emergence, 50 g ai/ha): 100
- efficacy (0-100 scale) (Cyperus amuricus; Pre-emergence, 100 g ai/ha): 100
- efficacy (0-100 scale) (Portulaca oleracea; Post-emergence, 12 g ai/ha): 20
- efficacy (0-100 scale) (Portulaca oleracea; Post-emergence, 25 g ai/ha): 40
- efficacy (0-100 scale) (Portulaca oleracea; Post-emergence, 50 g ai/ha): 60
- efficacy (0-100 scale) (Portulaca oleracea; Post-emergence, 100 g ai/ha): 80
- efficacy (0-100 scale) (Portulaca oleracea; Pre-emergence, 12 g ai/ha): 20
- efficacy (0-100 scale) (Portulaca oleracea; Pre-emergence, 25 g ai/ha): 30
- efficacy (0-100 scale) (Portulaca oleracea; Pre-emergence, 50 g ai/ha): 70
- efficacy (0-100 scale) (Portulaca oleracea; Pre-emergence, 100 g ai/ha): 100
- efficacy (0-100 scale) (Digitaria sanguinalis; Post-emergence, 12 g ai/ha): 0
- efficacy (0-100 scale) (Digitaria sanguinalis; Post-emergence, 25 g ai/ha): 0
- efficacy (0-100 scale) (Digitaria sanguinalis; Post-emergence, 50 g ai/ha): 0
- efficacy (0-100 scale) (Digitaria sanguinalis; Post-emergence, 100 g ai/ha): 10
- efficacy (0-100 scale) (Digitaria sanguinalis; Pre-emergence, 12 g ai/ha): 0
- efficacy (0-100 scale) (Digitaria sanguinalis; Pre-emergence, 25 g ai/ha): 10
- efficacy (0-100 scale) (Digitaria sanguinalis; Pre-emergence, 50 g ai/ha): 30
- efficacy (0-100 scale) (Digitaria sanguinalis; Pre-emergence, 100 g ai/ha): 50
- efficacy (0-100 scale) (Trifolium repens; Post-emergence, 12 g ai/ha): 20
- efficacy (0-100 scale) (Trifolium repens; Post-emergence, 25 g ai/ha): 60
- efficacy (0-100 scale) (Trifolium repens; Post-emergence, 50 g ai/ha): 70
- efficacy (0-100 scale) (Trifolium repens; Post-emergence, 100 g ai/ha): 80
- efficacy (0-100 scale) (Trifolium repens; Pre-emergence, 12 g ai/ha): 40
- efficacy (0-100 scale) (Trifolium repens; Pre-emergence, 25 g ai/ha): 60
- efficacy (0-100 scale) (Trifolium repens; Pre-emergence, 50 g ai/ha): 70
- efficacy (0-100 scale) (Trifolium repens; Pre-emergence, 100 g ai/ha): 70
- efficacy (0-100 scale) (Poa annua; Post-emergence, 12 g ai/ha): 0
- efficacy (0-100 scale) (Poa annua; Post-emergence, 25 g ai/ha): 0
- efficacy (0-100 scale) (Poa annua; Post-emergence, 50 g ai/ha): 0
- efficacy (0-100 scale) (Poa annua; Post-emergence, 100 g ai/ha): 10
- efficacy (0-100 scale) (Poa annua; Pre-emergence, 12 g ai/ha): 0
- efficacy (0-100 scale) (Poa annua; Pre-emergence, 25 g ai/ha): 10
- efficacy (0-100 scale) (Poa annua; Pre-emergence, 50 g ai/ha): 20
- efficacy (0-100 scale) (Poa annua; Pre-emergence, 100 g ai/ha): 20
